How the values were obtained:
Format in all cases: cell-based
PC-3 = experiment: cells; settings: Homo sapiens, PC-3; 2D monolayer, 72 h, Harmony software; no unit in the table, μM; read-out: Estimated EC50 values for cell proliferation, PC-3
Experimental: (§1) To rule out that cytotoxic and antimitotic effects were misinterpreted as anti-invasive, we tested compounds 4, 5, 6, 19 and 20 for inhibition of proliferation and induction of cell death in a 2D monolayer culture (summarized in Fig 6). […] LNCaP cells were more sensitive, with growth inhibition/cytotoxicity starting at 3 μM. The effects on non-transformed, apoptosis-sensitive Ep156T cells were strongest. Here, cytotoxic effects were typically observed already at 0.3–1 μM. […] We further calculated EC50 values for proliferation, apoptosis and cell death for each compound, using the PerkinElmer Harmony software (method validation shown in S7 Fig). The only assay that produced results consistent with those of the betulin derivatives tested in the 2D cell culture model was the proliferation assay (Table 1).
(§2) Fig 6 Cytotoxicity tests performed in 2D monolayer culture. A) Cell proliferation/cell number, B) programmed cell death (apoptosis), and C) number of dead cells were assessed by conventional assays, combined with high-content microscopy (Operetta). […] Proliferation was measured as the total number of nuclei (= cells), apoptosis as ratio of caspase-3 positive versus all cells, and cell death as ethidium homodimer-2 positive nuclei versus all cells.
(§3) Cells were transferred into CellCarrier 384-well plates (PerkinElmer, Waltham, MA, USA) at a density of 1250 cells/well, using Multidrop dispenser (ThermoFisher Scientific, Waltham, MA, USA). After overnight incubation at 37°C experimental, compounds were added with an ATS Acoustic Transfer System (EDC Biosystems, Fremont, CA, USA). For Ep156T cells the protocol was done in reverse with compounds dispensed before seeding of cells. Fluorescent markers were dispensed in culture medium using ATS system after 72-h compound exposure. Nuclei were stained with cell-permeable Hoechst 33342 (Molecular Probes, Eugene, OR, USA), dead cells with ethidium homodimer-2 (Invitrogen, Carlsbad, CA, USA) and apoptotic cells with NucView caspase-3 detection reagent (Essen Bioscience, Ann Arbor, MI, USA). Cells were imaged with Operetta high-content imager (PerkinElmer, Waltham, MA, USA). Proliferation was measured from the number of nuclei (cells), cell death and apoptosis from positive cells/total cells ratio using Harmony image analysis software (PerkinElmer, Waltham, MA, USA). EC50 values were also assessed with the Harmony software.

LNCaP = experiment: Proliferation assay in 2D monolayer culture (number of nuclei, Operetta high-content imager, 72 h); settings: Homo sapiens, Harmony software, no unit in the table, μM, read-out: Estimated EC50 values for cell proliferation, LNCaP
Experimental: as §1, §2, §3

EP156T = experiment: as above; settings: Harmony software, no unit in the table, μM, read-out: Estimated EC50 values for cell proliferation, EP156T
Experimental: as §1, with “6). A broad range of compound concentrations (1 nM to 30 μM) were used for PC-3, LNCaP and Ep156T cell lines, and analyzed with the PerkinElmer Operetta high-content imager.” for “6).”
as §2, §3

LAPC-4 = experiment: Secondary 3D screen (spheroid size, complexity, cell death); settings: yellow and red clusters
Description: Next, the 25 selected betulin derivatives depicted in Figs 1–3 including control compounds were again thoroughly tested across the same panel of prostate-derived cell lines already used in the preliminary, 2D high-throughput screen. The resulting dendrograms were either generated separately for each cell line (S4 Fig), combined into a single dendrogram (Fig 5A), or shown as reduced organoid sizes (area; Fig 5B).
Fig 5 Secondary 3D screens. Experimental betulin derivatives and control compounds were tested across a panel of prostate cancer lines (LNCaP, LAPC-4) and non-transformed, prostate epithelial cells (EP156T) in 3D culture. A) The dendrogram is based on three main morphological parameters and combines all data from primary and secondary 3D screens. […] B) Boxplots showing the impact of selected compounds on spheroid size (Area). Data scaling: as described in Fig 4 C) Effects of all betulin derivatives and control compounds on cell death (number of dead cells).
All 3D cultures were done in growth factor-free Matrigel Basement-membrane Matrix (Corning Inc., New York, NY, USA) using 96-well Angiogenesis μ-plates (ibidi GmbH, Munich, Germany) as described before.[38] “Sandwich” assays in short: bottom wells of cooled Angiogenesis plates were filled with 10 μL 4 mg/mL Matrigel, centrifuged for 20 min 200 g and incubated at 37°C temperature for approximately 30–60 min or until the ECM had polymerized. 1,000–1,500 cells were mixed in 2 mg/mL ECM-medium, and 20 μL of cell suspension was added in each well. The plates were centrifuged for 10 min at 100 g, or until the cells had settled on top of the lower ECM. Finally, the outer wells and side reservoirs were filled with water for humidification, and the culture plates placed into the incubator for 3–4 h or overnight. The following day, 60 μL of cell culture medium were added; refreshed every third day by carefully aspirating the medium. This “sandwich” setting allows almost unifocal alignment of cells and 3D structures in a single optical plane, thus reducing the time required for confocal stack imaging.
All control compounds were purchased from Selleck (Munich, Germany), except for staurosporine (Sigma-Aldrich, St. Louis, MO, USA) and Y-27632 (Tocris, Bristol, UK) and dissolved in dimethyl sulfoxide (DMSO) as a vehicle at 10 mM. In the primary and secondary 3D screens, experimental and control compound exposures were performed in triplicates. Four concentrations for each compound were applied (0.03, 0.1, 0.3 and 1 μM). Compound treatments were initiated four days after cell embedding, and continued for six days after which spheroids were stained and imaged.
Supplementary file pone.0126111.s004.eps: S4 Fig Secondary screens. Dendrograms for A) LNCaP, B) LAPC-4, and C) Ep156T betulin screens in 3D culture have been constructed using three main read-outs: spheroid size, spheroid complexity, and cell death. […] (EPS) Click here for additional data file.

SMILES	EC50 (PC-3) [µM]	EC50 (LNCaP) [µM]	EC50 (EP156T) [µM]	efficacy in 3D LAPC-4 culture (dendrogram clusters) (LAPC-4)
C=C(C)[C@@H]1CC[C@]2(C(=O)O)CC[C@]3(C)C(CCC4[C@@]5(C)Cc6cnoc6C(C)(C)C5CC[C@]43C)C12 (some centres unmarked) [Compound 5]	9.5	64.6	0.22	–
C=C(C)[C@@H]1CC[C@]2(C(=O)O)CC[C@]3(C)C(CCC4[C@@]5(C)Cc6cccnc6C(C)(C)C5CC[C@]43C)C12 (some centres unmarked) [Compound 19]	86.9	0.9	0.18	most active
CC(C)[C@@H]1CC[C@]2(C(=O)O)CC[C@]3(C)C(CCC4[C@@]5(C)Cc6cnoc6C(C)(C)C5CC[C@]43C)C12 (some centres unmarked) [Compound 4]	55.9	93.1	0.2	most active
C=C(C)[C@@H]1CC[C@]2(C(=O)O)CC[C@]3(C)C(CCC4[C@@]5(C)Cc6c[nH]nc6C(C)(C)C5CC[C@]43C)C12 (some centres unmarked) [Compound 6]	90.8	6.4	0.21	most active
CC(=O)O[C@H]1C(=O)[C@@]2(C)[C@H]([C@H](OC(=O)c3ccccc3)[C@]3(O)C[C@H](OC(=O)[C@H](O)[C@@H](NC(=O)c4ccccc4)c4ccccc4)C(C)=C1C3(C)C)[C@]1(OC(C)=O)CO[C@@H]1C[C@@H]2O [Paclitaxel, paclitaxel, reference compound]	0.0012	0.0006	0.0008	efficacy of all positive controls
C=C(C)[C@@H]1CC[C@]2(C(=O)O)CC[C@]3(C)C(CCC4[C@@]5(C)Cc6ncccc6C(C)(C)C5CC[C@]43C)C12 (some centres unmarked) [Compound 20]	66.9	132	0.19	most active
